Data from patent publication EP3057951B1, “METHYLENE LINKED QUINOLINYL MODULATORS OF ROR-GAMMA-T” (Janssen Pharmaceutica NV, priority 2013, dated 2015).
Where a name gives a salt, the structure may show the parent alone. Read-outs that look alike come from different tables or passages of the source.

What was measured:
[1] = biological target: T1, wild type human RORγt ligand binding domain (RORyt LBD) (Homo sapiens, UniProt P51449); assay: RORγt ThermoFluor assay (thermal shift, binding affinity KD)
T1 construct: His-tag (N); TurboTEV protease cleavage site (ENLYFQG) (N); made in house; host or cells: E. coli (pHIS1, modified pET vector)
T1 sequence (P51449 258-518): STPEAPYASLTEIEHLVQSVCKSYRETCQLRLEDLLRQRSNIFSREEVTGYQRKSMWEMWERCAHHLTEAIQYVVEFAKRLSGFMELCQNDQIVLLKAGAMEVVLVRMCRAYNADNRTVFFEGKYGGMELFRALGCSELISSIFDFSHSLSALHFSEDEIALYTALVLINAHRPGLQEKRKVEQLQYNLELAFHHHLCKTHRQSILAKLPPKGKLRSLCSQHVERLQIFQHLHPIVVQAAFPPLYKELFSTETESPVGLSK

[2] = biological target: T2, wild type human RORγt LBD (Homo sapiens, UniProt P51449); assay: RORγt (LBD) Reporter Assay (GAL4-luciferase, HEK293T cells); type: cell-based; details: for inhibition at 6 µM: HEK-293T, read-out: RORγt (LBD) Reporter Assay, % inhibition @ 6 µM, 6 µM compound concentration; for RORγt (LBD) Reporter Assay, % inhibition @ 6 µM: 6 µM compound concentration
T2 construct: expressed in transfected cells; host or cells: HEK293T
T2 sequence (P51449 258-518): T1 sequence (P51449 258-518)

[3] = HEK293T cells, value after the comma with ∼, > or < could not be included in the average

Molecule | Kd [1] [nM] | IC50 [2, 3] [nM] | inhibition at 6 µM [2] [%] | IC50 ([2]; HEK293T cells) [nM] | inhibition at 6 µM ([2]; HEK293T cells) [%] | RORγt (LBD) Reporter Assay, % inhibition @ 6 µM ([2]; HEK293T cells, 6 µM) [%] | RORγt (LBD) Reporter Assay, % inhibition @ 6 µM ([2]; 6 µM) [%] | RORγt (LBD) Reporter Assay, % inhibition @ 6 µM [2] [%]
Cc1ccc(C(O)(c2ccc3nc(C)c(Cc4ccc(C(F)(F)F)cc4)c(Cl)c3c2)c2cnnn2C)c(C)n1 (stereo not drawn) [Example 28a, (4-Chloro-2-methyl-3-(4-(trifluoromethyl)benzyl)quinolin-6-yl)(2,6-dimethylpyridin-3-yl)(1-methyl-1H-1,2,3-triazol-5-yl)methanol] | 0.25 | 11 | 99 |  |  |  |  | 
Cn1cncc1C(O)(c1ccc2nc(Cl)c(Cc3ccc(-n4cccn4)cc3)c(Cl)c2c1)c1ncccn1 (stereo not drawn) [Example 130, {2,4-Dichloro-3-[4-(1H-pyrazol-1-yl)benzyl]quinolin-6-yl}(1-methyl-1H-imidazol-5-yl)pyrimidin-2-ylmethanol.TFA] | 640 |  |  | 510 | 94 |  |  | 
COc1nc2ccc(C(O)(c3ccc(C)nc3C)c3cnc(C)n3C)cc2c(Cl)c1Cc1ccc(C(F)(F)F)cc1 (racemic) [Example 57a, (4-Chloro-2-methoxy-3-(4-(trifluoromethyl)benzyl)quinolin-6-yl)(1,2-dimethyl-1H-imidazol-5-yl)(2,6-dimethylpyridin-3-yl)methanol] | 0.03 | 22 | 100 |  |  |  |  | 
CN(C)c1nc2ccc(C(O)(c3ccc(C(F)(F)F)nc3)c3cncn3C)cc2c(Cl)c1Cc1ccc(-n2cccn2)cc1 (stereo not drawn) [Example 132, {4-Chloro-2-(dimethylamino)-3-[4-(1H-pyrazol-1-yl)benzyl]quinolin-6-yl}(1-methyl-1H-imidazol-5-yl)[6-(trifluoromethyl)pyridin-3-yl]methanol] | 36 |  |  | 45 | 108 |  |  | 
COc1nc2ccc(C(O)(c3ccc(F)cc3)C3CCN(C(C)=O)CC3)cc2c(Cl)c1Cc1ccc(-n2cccn2)cc1 (single isomer, unassigned) [Example 157c, 1-(4-((3-(4-(1H-Pyrazol-1-yl)benzyl)4-chloro-2-methoxyquinolin-6-yl)(4-fluorophenyl)(hydroxy)methyl)piperidin-1-yl)ethanone] | 110 |  |  | 160 |  | 99 |  | 
COc1nc2ccc(C(O)(c3ccc(C#N)cc3)c3cncn3C)cc2c(Cl)c1Cc1ccc(C(F)(F)F)nc1 (single isomer, unassigned) [Example 38c, 4-((4-Chloro-2-methoxy-3-((6-(trifluoromethyl)pyridin-3-yl)methyl)quinolin-6-yl)(hydroxy)(1-methyl-1H-imidazol-5-yl)methyl)benzonitrile] | 5.2 | 14 |  |  |  |  | 98 | 
Cn1cncc1C(O)(c1ccc2nc(C(F)(F)F)c(Cc3ccccc3)c(O)c2c1)c1ccccn1 (stereo not drawn) [Example 152, 3-Benzyl-6-(hydroxy(1-methyl-1H-imidazol-5-yl)(pyridin-2-yl)methyl)-2-(trifluoromethyl)quinolin-4-ol^.TFA] | 38000 |  |  | 4800 | 70 |  |  | 
COc1ccc(C(O)(c2cccnc2)c2ccc3nc(OC)c(Cc4ccc(-n5cccn5)cc4)c(Cl)c3c2)cc1 (stereo not drawn) [Example 63] | 68 | 140 | 99 |  |  |  |  | 
COc1nc2ccc(C(O)(c3cnnn3C)C3CCOCC3)cc2c(Cl)c1Cc1ccc(C(F)(F)F)cc1 (single isomer, unassigned) [Example 85c, (4-Chloro-2-methoxy-3-(4-(trifluoromethyl)benzyl)quinolin-6-yl)(1-methyl-1H-1,2,3-triazol-5-yl)(tetrahydro-2H-pyran-4-yl)methanol] | 2.8 | 17 |  |  |  |  | 100 | 
3-((4-Chloro-6-((4-chlorophenyl)(hydroxy)(1-methyl-1H-imidazol-5-yl)methyl)-2-methoxyquinolin-3-yl)methyl)benzonitrile•TFA [Example 70] | 120 | 430 |  |  |  |  |  | 94
Cc1ccc(C(O)(c2ccc3nc(N4CCC4)c(Cc4ccc(C(F)(F)F)cc4)c(Cl)c3c2)c2cnnn2C)c(C)n1 (stereo not drawn) [Example 140a, {2-Azetidin-1-yl-4-chloro-3-[4-(trifluoromethyl)benzyl]quinolin-6-yl}(2,6-dimethylpyridin-3-yl)(1-methyl-1H-1,2,3-triazol-5-yl)methanol] | 0.19 |  |  | 22 | 99 |  |  | 
Cn1cncc1C(O)(c1ccc2nc(C(F)(F)F)c(Cc3ccccc3)c(C#N)c2c1)c1ccccn1 (single isomer, unassigned) [Example 99b, 3-Benzyl-6-(hydroxy(1-methyl-1H-imidazol-5-yl)(pyridin-2-yl)methyl)-2-(trifluoromethyl)quinoline-4-carbonitrile] | 810 | ~2000 | 86 |  |  |  |  | 
COc1nc2ccc(C(O)(c3cncn3C)C3CCOCC3)cc2c(Cl)c1Cc1ccc(-n2cccn2)cc1 (single isomer, unassigned) [Example 1b, (3-(4-(1H-Pyrazol-1-yl)benzyl)-4-chloro-2-methoxyquinolin-6-yl)(1-methyl-1H-imidazol-5-yl)(tetrahydro-2H-pyran-4-yl)methanol] | 43 | 100 | 99 |  |  |  |  | 
Cc1ccc(C(O)(c2ccc3nc(NC4CC4)c(Cc4ccc(C(F)(F)F)cc4)c(Cl)c3c2)c2cnnn2C)c(C)n1 (single isomer, unassigned) [Example 143b, {4-Chloro-2-(cyclopropylamino)-3-[4-(trifluoromethyl)benzyl]quinolin-6-yl}(2,6-dimethylpyridin-3-yl)(1-methyl-1H-1,2,3-triazol-5-yl)methanol] | 1700 |  |  | 1600 | 93 |  |  | 
COc1nc2ccc(C(O)(c3ccccc3)C3CCN(C(C)=O)CC3)cc2c(Cl)c1Cc1ccc(C(F)(F)F)cc1 (single isomer, unassigned) [Example 69c, 1-(4-((4-Chloro-2-methoxy-3-(4-(trifluoromethyl)benzyl)quinolin-6-yl)(hydroxy)(phenyl)methyl)piperidin-1-yl)ethanone] | 35 | 69 |  |  |  |  | 99 | 
COc1nc2ccc(C(O)(c3sc(C)nc3C)c3cnnn3C)cc2c(Cl)c1Cc1ccc(-n2cccn2)cc1 (single isomer, unassigned) [Example 21b, (3-(4-(1H-Pyrazol-1-yl)benzyl)-4-chloro-2-methoxyquinolin-6-yl)(2,4-dimethylthiazol-5-yl)(1-methyl-1H-1,2,3-triazol-5-yl)methanol] | 22 | 130 | 99 |  |  |  |  | 
COc1nc2ccc(C(O)(c3ccccc3)C3CCN(C(C)=O)CC3)cc2c(Cl)c1Cc1ccc(-n2cncn2)cc1 (stereo not drawn) [Example 18a, 1-(4-((3-(4-(1H-1,2,4-Triazol-1-yl)benzyl)4-chloro-2-methoxyquinolin-6-yl)(hydroxy)(phenyl)methyl)piperidin-1-yl)ethanone] | 14 | 46 | 99 |  |  |  |  | 
CC(=O)N1CCC(C(O)(c2ccc(F)cc2)c2ccc3nc(OC(F)F)c(Cc4cncnc4)c(OC(F)F)c3c2)CC1 (stereo not drawn) [Example 72, 1-(4-((2,4-bis(Difluoromethoxy)-3-(pyrimidin-5-ylmethyl)quinolin-6-yl)(4-fluorophenyl)(hydroxy)methyl)piperidin-1-yl)ethanone] | 1100 | 1200 | 53 |  |  |  |  | 
Cn1cncc1C(O)(c1ccc(C(F)(F)F)nc1)c1ccc2nc(-c3nccn3C)c(Cc3ccccc3)c(C#N)c2c1 (stereo not drawn) [Example 153, 3-Benzyl-6-(hydroxy(1-methyl-1H-imidazol-5-yl)(6-(trifluoromethyl)pyridin-3-yl)methyl)-2-(1-methyl-1H-imidazol-2-yl)quinoline-4-carbonitrile^.TFA] | 15000 |  |  | > 6000 | 44 |  |  | 
Cc1cc(C(O)(c2ccc(Cl)cc2)c2cncn2C)cc2c(Cl)c(Cc3ccc(-n4cccn4)cc3)c(N3CCC3)nc12 (stereo not drawn) [Example 136a] | 150 |  |  | 140 | 94 |  |  | 
Cn1cncc1C(O)(c1ccc(C(F)(F)F)nc1)c1ccc2nc(C(F)(F)F)c(Cc3ccccc3)c(O)c2c1 (stereo not drawn) [Example 107, 3-Benzyl-6-(hydroxy(1-methyl-1H-imidazol-5-yl)(6-(trifluoromethyl)pyridin-3-yl)methyl)-2-(trifluoromethyl)quinolin-4-ol•TFA] | 3400 | 5600 | 57 |  |  |  |  | 
COc1nc2ccc(C(O)(c3ccccc3)C3CCN(C(C)=O)CC3)cc2c(Cl)c1Cc1ccc(C(F)(F)F)cc1 (single isomer, unassigned) [Example 69b, 1-(4-((4-Chloro-2-methoxy-3-(4-(trifluoromethyl)benzyl)quinolin-6-yl)(hydroxy)(phenyl)methyl)piperidin-1-yl)ethanone] | 1.8 | 36 | 100 |  |  |  |  | 
COc1nc2ccc(C(O)(c3ccc(F)cc3)C3CCN(C(C)=O)CC3)cc2c(Cl)c1Cc1ccc(F)cc1 (single isomer, unassigned) [Example 51b, 1-(4-((4-Chloro-3-(4-fluorobenzyl)-2-methoxyquinolin-6-yl)(4-fluorophenyl)(hydroxy)methyl)piperidin-1-yl)ethanone] | 3.9 | 170 |  |  |  |  | 46 | 
